From patent US11352338B2, “Substituted isoindolinones” (BioTheryX, Inc., priority 2018, dated 2022) come the findings set out here.

Like-named read-outs stand apart in the source and are kept apart here.

The target of assay [1] is T1, PDE6D (Homo sapiens, UniProt O43924+Q96SW2).
T1 construct: endogenous in cells; host or cells: MV-4-11
Briefly: Western blot, degradation of cellular PDE6D in MV-4-11 cells. Format: cell-based. As to conditions: for % Degradation of PDE6D: comparison with comparative compound A; for Dmax at 1 µM: MV4-11, tested at 1 μM, MV-4-11 cells, 6-8 hours, read-out: % Degradation compared to DMSO, PDE6D. On the procedure: (§1) MV-4-11 cells were grown in RPMI 1640 media supplemented with 10% fetal bovine serum, streptomycin and penicillin.
(§2) Cells were cultured at approximately 10^6 cells per mL and incubated in DMSO or the indicated compounds for 6-8 hours. Whole cell extracts were prepared using RIPA lysis buffer according to manufacturer's protocol (Pierce). Briefly, 4×10^6 cells were washed once in PBS, the cell pellets were resuspended in RIPA lysis buffer and allowed to incubate for 15 minutes on ice. Cells debris was removed by centrifugation and the cleared whole cell lysates were transferred to new tubes for further analysis.
(§3) For Western blot analysis, whole cell protein extracts were separated on 4-12% SDS-polyacrylamide gels, transferred to nitrocellulose and probed with the indicated primary antibodies. Membranes were subsequently washed and probed with the appropriate IRDye secondary antibodies (LI-COR). The signal was detected using the Odyssey Imaging System (LI-COR).
(§4) The following antibodies were used in these studies: Anti-PDE6D antibody: Santa Cruz Biotechnology, sc-166854 (Dallas, Tex.); Anti-Ikaros: Abcam, ab191394 (Cambridge, Mass.); anti-CK1α antibody: Abcam, ab108296 (Cambridge, Mass.); β-Actin (8H10D10) mouse monoclonal antibody: Cell Signaling Technology, #3700 (Danvers, Mass.); IRDye 680RD Goat anti-rabbit antibody: LI-COR, 926-68071 (Lincoln, Nebr.); and IRDye 800CW Goat anti-mouse antibody: LI-COR, 926-32210 (Lincoln, Nebr.).
(§5) The % degradation values are reported as “A”, “B”, “C”, or “D.” “A” represents a % degradation value of less than 25% (value<25%); “B” represents a % degradation value of equal to or more than 25% and less than 50% (25%≤value<50%); “C” represents a % degradation value of equal to or more than 50% and less than 75% (50%≤value<75%); and “D” represents a % degradation value of equal to or more than 75% (value≥75%). […] was used as control.
(In general: In western blotting, separated proteins are transferred to a membrane and probed.)

The subject of assay [2] is IL-6. As to the kind of experiment: IL-6 inhibition, LPS-induced PBMCs or CD14+ monocytes, Meso Scale assay. Format: cell-based. As to conditions: LPS 100 ng/mL 18-24 h, read-out: % Inhibition compared to DMSO, IL-6; for inhibition at 1 µM: tested at 1 μM; for inhibition at 10 µM: tested at 10 μM. The method, then:
(§6) Either frozen primary blood mononuclear cells (PBMCs) or frozen CD14+ mobilized peripheral blood monocytes were purchased from AllCells (PB003F, Normal Peripheral Blood MNC (Alameda, Calif.)). Cells were quick thawed, washed 1-time with RPMI-1640 (10% FBS/1% Pen-Strep) and plated in 96 well plates at 200,000 cells per well. Cells were pretreated with DMSO only or with the indicated compound for 1 h and then induced with 100 ng/mL lipopolysaccharide (LPS) for 18-24 h. The supernatant was analyzed for IL-1β, IL-6, and TNFα, using Meso Scale assay according to manufacturer's protocol. The negative control wells were treated with DMSO.
(§7) IL-1β, IL-6 and TNFα activities were tested at two different concentrations (1 μM and 10 μM) and the results are shown in Tables 2 and 3 respectively.

Assay [3] deals with T2, CK1α (Homo sapiens, UniProt P48729+Q96SW2).
T2 construct: endogenous in cells; host or cells: MV-4-11
Briefly: Western blot, degradation of cellular CK1α in MV-4-11 cells. As to conditions: MV4-11, tested at 1 μM, 6-8 hours, read-out: % Degradation compared to DMSO, CK1α. The format is cell-based. On the procedure:
as §1, §2, §3, §4, §5

For assay [4], the target named is T3, Ikaros (Homo sapiens, UniProt Q13422+Q96SW2).
T3 construct: endogenous in cells; host or cells: MV-4-11
Briefly: Western blot, degradation of cellular Ikaros in MV-4-11 cells. To be noted: MV4-11, tested at 1 μM, 6-8 hours, read-out: % Degradation compared to DMSO, Ikaros. The format is cell-based. On the procedure: as §1, §2, §3, §4, §5

Assay [5] has as its system TNFα. As to the kind of experiment: TNFα inhibition, LPS-induced PBMCs or CD14+ monocytes, Meso Scale assay. Format: cell-based. As to conditions: LPS 100 ng/mL 18-24 h, read-out: % Inhibition compared to DMSO, TNFα; for inhibition at 1 µM: tested at 1 μM; for inhibition at 10 µM: tested at 10 μM. On the procedure: as §6, §7
Assay [6] relates to IL-1β. Briefly: IL-1β inhibition, LPS-induced PBMCs or CD14+ monocytes, Meso Scale assay. Format: cell-based. To be noted: LPS 100 ng/mL 18-24 h, read-out: % Inhibition compared to DMSO, IL-1β; for inhibition at 1 µM: tested at 1 μM; for inhibition at 10 µM: tested at 10 μM. On the procedure:
as §6, §7

Assay [7] has as its system IL-2. Briefly: IL-2 inhibition assay, anti-CD3 (OKT3) stimulated PBMCs, Mesoscale IL-2 analysis. The format is cell-based, human. As to conditions: for fold induction at 1 µM / fold induction at 10 µM: Homo sapiens, PBMC, read-out: IL-2, % Induction compared to DMSO. The method, then: For the IL-2 analysis, 96 well plates were precoated with 1 μg/mL anti-human CD3 antibody (OKT3, eBioscience Inc., San Diego, Calif.). After washing with PBS, the indicated compound was added (50 μL/well) followed by PBMCs diluted at 3-4 million cells/mL (150 μL/well). Plates were incubated for 24 h and the supernatants collected for Mesoscale IL-2 analysis. IL-2 activity is measured as fold difference from the DMSO control. […]
In Table 4, the fold-change values are reported as “A”, “B”, “C”, or “D”. “A” represents a fold-change value of equal to or less than 0.5 (value≤0.5); “B” represents a fold-change value of more than 0.5 and equal to or less than 1 (0.5<value≤1); “C” represents a fold-change value of more than 1 and less than 1.5 (1<value<1.5); and “D” represents a fold-change value of equal to or more than 1.5 (value≥1.5).

Where [8] appears, read: PBMCs on anti-CD3, 24 h, fold difference from DMSO control.
[9] abbreviates: 10 μM, PBMCs on anti-CD3, 24 h, fold difference from DMSO control.

T3 sequence (Q13422 whole entry): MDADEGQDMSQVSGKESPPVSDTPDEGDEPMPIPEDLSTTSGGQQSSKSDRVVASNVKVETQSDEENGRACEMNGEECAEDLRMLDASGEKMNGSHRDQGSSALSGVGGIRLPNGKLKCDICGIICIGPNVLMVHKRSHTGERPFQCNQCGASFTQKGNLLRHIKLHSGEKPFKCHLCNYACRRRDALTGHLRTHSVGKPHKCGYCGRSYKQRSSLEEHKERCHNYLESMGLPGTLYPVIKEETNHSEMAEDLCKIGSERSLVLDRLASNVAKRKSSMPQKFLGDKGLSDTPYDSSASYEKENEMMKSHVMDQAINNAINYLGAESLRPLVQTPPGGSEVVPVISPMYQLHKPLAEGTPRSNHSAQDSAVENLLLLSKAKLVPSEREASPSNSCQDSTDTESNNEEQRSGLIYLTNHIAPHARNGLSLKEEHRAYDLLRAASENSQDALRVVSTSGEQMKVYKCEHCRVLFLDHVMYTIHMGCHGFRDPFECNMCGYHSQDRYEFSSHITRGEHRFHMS
T3 sequence (Q96SW2 whole entry): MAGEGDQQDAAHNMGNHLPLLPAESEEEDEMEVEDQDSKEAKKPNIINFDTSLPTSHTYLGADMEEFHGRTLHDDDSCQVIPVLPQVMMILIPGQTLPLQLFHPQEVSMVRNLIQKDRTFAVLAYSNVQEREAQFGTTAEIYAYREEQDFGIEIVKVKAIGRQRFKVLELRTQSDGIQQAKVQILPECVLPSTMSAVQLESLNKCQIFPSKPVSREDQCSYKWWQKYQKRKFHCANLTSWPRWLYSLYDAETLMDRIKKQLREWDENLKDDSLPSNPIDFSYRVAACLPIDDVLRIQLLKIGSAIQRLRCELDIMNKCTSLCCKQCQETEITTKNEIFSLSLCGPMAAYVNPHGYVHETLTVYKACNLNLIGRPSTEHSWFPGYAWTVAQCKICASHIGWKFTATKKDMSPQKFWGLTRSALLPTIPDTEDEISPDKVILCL
T3 sequence (Q16531 whole entry partner): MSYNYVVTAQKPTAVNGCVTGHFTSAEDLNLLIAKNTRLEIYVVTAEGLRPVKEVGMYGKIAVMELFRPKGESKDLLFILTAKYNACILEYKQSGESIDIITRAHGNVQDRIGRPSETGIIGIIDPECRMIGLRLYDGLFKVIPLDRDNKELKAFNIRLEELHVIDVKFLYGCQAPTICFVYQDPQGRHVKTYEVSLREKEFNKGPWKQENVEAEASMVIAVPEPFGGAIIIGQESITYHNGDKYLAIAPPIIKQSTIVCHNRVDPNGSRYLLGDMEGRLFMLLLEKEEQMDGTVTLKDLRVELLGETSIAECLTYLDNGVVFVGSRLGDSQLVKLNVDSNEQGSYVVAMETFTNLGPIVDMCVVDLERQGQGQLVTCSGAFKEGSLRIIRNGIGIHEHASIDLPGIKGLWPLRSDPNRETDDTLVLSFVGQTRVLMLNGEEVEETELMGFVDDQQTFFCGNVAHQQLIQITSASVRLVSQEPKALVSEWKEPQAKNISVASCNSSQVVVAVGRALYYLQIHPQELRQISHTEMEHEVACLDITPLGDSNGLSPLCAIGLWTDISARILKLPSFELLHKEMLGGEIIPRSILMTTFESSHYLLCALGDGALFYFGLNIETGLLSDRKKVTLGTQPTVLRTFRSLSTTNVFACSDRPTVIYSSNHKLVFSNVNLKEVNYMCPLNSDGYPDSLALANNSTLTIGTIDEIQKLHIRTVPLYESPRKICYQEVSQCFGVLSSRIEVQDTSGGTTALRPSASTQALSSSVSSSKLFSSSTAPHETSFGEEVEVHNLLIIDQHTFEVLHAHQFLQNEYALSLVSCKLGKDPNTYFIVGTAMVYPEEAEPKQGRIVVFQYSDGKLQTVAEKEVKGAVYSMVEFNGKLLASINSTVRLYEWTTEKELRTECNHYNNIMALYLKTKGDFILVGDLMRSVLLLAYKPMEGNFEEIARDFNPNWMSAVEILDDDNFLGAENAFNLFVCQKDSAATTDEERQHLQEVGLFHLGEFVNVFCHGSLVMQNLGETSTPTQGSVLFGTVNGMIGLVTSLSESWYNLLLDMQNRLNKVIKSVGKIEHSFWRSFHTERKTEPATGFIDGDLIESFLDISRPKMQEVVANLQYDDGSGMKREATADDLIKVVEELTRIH
T1 sequence (O43924 whole entry): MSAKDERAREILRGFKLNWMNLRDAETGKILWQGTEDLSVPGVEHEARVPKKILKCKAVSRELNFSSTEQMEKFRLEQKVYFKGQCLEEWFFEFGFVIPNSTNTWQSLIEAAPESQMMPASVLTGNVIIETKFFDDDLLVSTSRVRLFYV
T1 sequence (Q96SW2 whole entry): as the sequence (Q96SW2 whole entry) above
T1 sequence (Q16531 whole entry partner): as the sequence (Q16531 whole entry partner) above
T2 sequence (P48729 whole entry): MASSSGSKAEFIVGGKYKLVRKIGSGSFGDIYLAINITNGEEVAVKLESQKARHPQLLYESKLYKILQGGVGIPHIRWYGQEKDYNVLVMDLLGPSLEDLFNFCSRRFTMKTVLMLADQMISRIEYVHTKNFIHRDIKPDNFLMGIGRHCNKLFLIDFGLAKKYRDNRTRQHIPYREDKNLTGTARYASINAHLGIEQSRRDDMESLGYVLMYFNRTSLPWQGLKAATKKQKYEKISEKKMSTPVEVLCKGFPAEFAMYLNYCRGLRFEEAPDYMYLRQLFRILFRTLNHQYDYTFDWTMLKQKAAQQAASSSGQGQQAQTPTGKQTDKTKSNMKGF
T2 sequence (Q96SW2 whole entry): as the sequence (Q96SW2 whole entry) above
T2 sequence (Q16531 whole entry partner): as the sequence (Q16531 whole entry partner) above

In the case of `Cc1cccc2c1CN(C1CCCC(=O)NC1=O)C2=O` (stereo not shown) [Compound A, reference compound], in assay [1] (1 μM), the “PDE6D degradation activity (in words)” value is given as “did not demonstrate any measurable PDE6D degradation activity” and the “% Degradation of PDE6D” value is “A (a % degradation value of less than 25% (value<25%))”.
`O=C1CCC(N2Cc3c(ccc(F)c3C3CCCC3)C2=O)C(=O)N1` (stereo not shown) [Compound 24]: the inhibition at 1 µM in assay [2] is less than 10%; in assay [5] it was 10 to 25%; in assay [6], less than 10%. The inhibition at 10 µM in assay [2], in assay [5] and in assay [6] was less than 10% in each case. Besides, the Dmax at 1 µM in assay [3] was less than 25%; in assay [1] it was 25 to 50%; in assay [4] it was less than 25%. In addition, the fold induction at 1 µM in assay [7] (setting [8]) is 1 to 1.5. In addition, the fold induction at 10 µM in assay [7] (setting [9]) lay within 1 to 1.5.
`O=C1CCC(N2Cc3c(cc(F)cc3C3CCOCC3)C2=O)C(=O)N1` (stereo not shown) [Compound 32]: the inhibition at 1 µM in assay [2], in assay [5] and in assay [6] was less than 10% each time. Moreover, the Dmax at 1 µM in assay [3] is 25 to 50%; in assay [1], no less than 75%; in assay [4] it was less than 25%.
Turning to `O=C1CCC(N2Cc3c(cc(F)cc3C3CC3)C2=O)C(=O)N1` (stereo not shown) [Compound 5], the results for the inhibition at 1 µM in assay [2], in assay [5] and in assay [6] were less than 10%, 25 to 50% and 25 to 50%, respectively. The inhibition at 10 µM in assay [2] is less than 10%; in assay [5], greater than 50%; in assay [6], greater than 50%. In addition, the values for the Dmax at 1 µM in assay [3], in assay [1] and in assay [4] were no less than 75%, no less than 75% and 25 to 50%, respectively. Moreover, the fold induction at 1 µM in assay [7] (setting [8]) is no more than 0.5. In addition, the fold induction at 10 µM in assay [7] (setting [9]) was no more than 0.5.
As to `O=C1CCC(N2Cc3c(cccc3C3CC3)C2=O)C(=O)N1` (stereo not shown) [Compound 13], the figures for the inhibition at 1 µM in assay [2], in assay [5] and in assay [6] were less than 10%, greater than 50% and 25 to 50%, respectively. The inhibition at 10 µM in assay [2] is less than 10%; in assay [5], greater than 50%; in assay [6] it was 25 to 50%. The Dmax at 1 µM in assay [3], in assay [1] and in assay [4] was 50 to 75% in each case. The fold induction at 1 µM in assay [7] (setting [8]) is no less than 1.5. In addition, the fold induction at 10 µM in assay [7] (setting [9]) is no less than 1.5.
`O=C1CC(N2Cc3c(cc(F)cc3C3CCCC3)C2=O)C(=O)N1` (stereo not shown) [Compound 19, 3-(4-Cyclopentyl-6-fluoro-1-oxoisoindolin-2-yl)pyrrolidine-2,5-dione]: the inhibition at 1 µM in assay [2], in assay [5] and in assay [6] was less than 10% each time. The inhibition at 10 µM in assay [2], in assay [5] and in assay [6] was less than 10% each time. For the same compound, the figures for the Dmax at 1 µM in assay [3], in assay [1] and in assay [4] were less than 25%, no less than 75% and less than 25%, respectively. For the same compound, the fold induction at 1 µM in assay [7] (setting [8]) fell in the range of 0.5 to 1. For the same compound, in assay [7] (setting [9]), the fold induction at 10 µM was in the range of 0.5 to 1.
Consider `CC1CC(=O)NC(=O)C1N1Cc2c(cc(F)cc2C2CCCC2)C1=O` (stereo not shown) [Compound 6, 3-(4-cyclopentyl-6-fluoro-1-oxoisoindolin-2-yl)-4-methylpiperidine-2,6-dione], for which the inhibition at 1 µM in assay [2] is less than 10%; in assay [5], 10 to 25%; in assay [6], less than 10%. Besides, the inhibition at 10 µM in assay [2] is less than 10%; in assay [5], greater than 50%; in assay [6], 10 to 25%. The Dmax at 1 µM in assay [3] was 25 to 50%; in assay [1], no less than 75%; in assay [4] it was less than 25%. In assay [7] (setting [8]), the fold induction at 1 µM lay in the range of 0.5 to 1. The fold induction at 10 µM in assay [7] (setting [9]) was no more than 0.5.
As for `O=C1CCC(N2Cc3c(cc(F)cc3C3CCCC3)C2=O)C(=O)N1` (stereo not shown) [Compound 1], the inhibition at 1 µM was less than 10% in assay [2], 25 to 50% in assay [5] and 10 to 25% in assay [6]. The inhibition at 10 µM in assay [2] is less than 10%; in assay [5], 25 to 50%; in assay [6], 25 to 50%. For the same compound, the Dmax at 1 µM in assay [3] was no less than 75%; in assay [1] it was no less than 75%; in assay [4], 50 to 75%. Also, the “% Degradation of PDE6D” value in assay [1] (1 μM) is on record as “D (a % degradation value of equal to or more than 75% (value≥75%))”. In assay [7] (10 μM), the “effect on IL-2 (in words)” value is “strong inhibition of IL-2 (downregulation)”. Besides, the “IL-2, % Induction compared to DMSO” value in assay [7] (10 μM, comparison with comparative compound B) is “A (a fold-change value of equal to or less than 0.5 (value≤0.5))”. Further, the fold induction at 1 µM in assay [7] (setting [8]) is no more than 0.5. Moreover, the fold induction at 10 µM in assay [7] (setting [9]) was no more than 0.5.
For the compound `CCC1(N2Cc3c(cc(F)cc3C3CCCC3)C2=O)CCC(=O)NC1=O` (stereo not shown) [Compound 18, 3-(4-Cyclopentyl-6-fluoro-1-oxoisoindolin-2-yl)-3-ethylpiperidine-2,6-dione], the inhibition at 1 µM in assay [2], in assay [5] and in assay [6] was less than 10% in each case. Further, the inhibition at 10 µM in assay [2] was less than 10%; in assay [5], 25 to 50%; in assay [6], 10 to 25%. Also, the Dmax at 1 µM in assay [3] was less than 25%; in assay [1], 25 to 50%; in assay [4], less than 25%. Also, in assay [7] (setting [8]), the fold induction at 1 µM lay in the range of 1 to 1.5. Further, in assay [7] (setting [9]), the fold induction at 10 µM is 0.5 to 1.
On to `Cc1cccc2c1CN(C1CCC(=O)NC1=O)C2=O` (stereo not shown) [Compound B, reference compound], for which, in assay [7] (10 μM), the “effect on IL-2 (in words)” value is recorded as “induced IL-2 (upregulation)”. Besides, in assay [7] (24 h, 10 μM, comparison with comparative compound B), the fold induction at 10 µM was no less than 1.5.
Take `O=C1CCC(N2Cc3c(cc(F)cc3C(F)F)C2=O)C(=O)N1` (stereo not shown) [Compound 17, 3-(4-(Difluoromethyl)-6-fluoro-1-oxoisoindolin-2-yl) piperidine-2,6-dione]: the inhibition at 1 µM in assay [2] is less than 10%; in assay [5] it was 25 to 50%; in assay [6], less than 10%. The inhibition at 10 µM is less than 10% in assay [2], 25 to 50% in assay [5] and 10 to 25% in assay [6]. The Dmax at 1 µM in assay [1] is 50 to 75%; in assay [4], no less than 75%. The fold induction at 1 µM in assay [7] (setting [8]) was in the range of 0.5 to 1. In addition, the fold induction at 10 µM in assay [7] (setting [9]) was 0.5 to 1.

Broadly, the inhibition is how much of the control response was suppressed.
